One series has as its system Brassica napus L. Nature of the series: Pre-emergence herbicidal inhibition assay, Petri dish test, BN. Format: in vivo. The conditions noted are these: for EC50: Brassica napus, 168 h. The method, then: (§1) The pre-emergence activity of the compounds against monocot Echinochloa crus-galli (EC) and dicot Brassica napus L. (BN) was evaluated using the standard Petri dish test. The compounds were dissolved in DMF, emulsified with Tween-80 and diluted with water to form stock solutions, each of which was further diluted to a gradient of 100, 50, 25, 10 and 1 mg/L for test. The test solutions were added to Petri dishes lined with a filter paper, on which 10 seeds of EC and BN were placed. After cultured in an intelligent climate chamber with a humidity of 65% at 26 °C for 7 days, the corresponding EC50 values were calculated.

In a further series the test system is Echinochloa crus-galli. Nature of the series: Pre-emergence herbicidal inhibition assay, Petri dish test, EC. Format: in vivo. The conditions noted are these: for EC50: Echinochloa crus-galli, 168 h. The method, then: as §1
The target in series [1] is recombinant E. coli DXR (EcDXR) (Escherichia coli, UniProt P45568). Description: biochemical. The conditions noted are these: read-out: InR (%) on DXR enzyme.
Chain of recombinant E. coli DXR (EcDXR) (P45568 whole entry): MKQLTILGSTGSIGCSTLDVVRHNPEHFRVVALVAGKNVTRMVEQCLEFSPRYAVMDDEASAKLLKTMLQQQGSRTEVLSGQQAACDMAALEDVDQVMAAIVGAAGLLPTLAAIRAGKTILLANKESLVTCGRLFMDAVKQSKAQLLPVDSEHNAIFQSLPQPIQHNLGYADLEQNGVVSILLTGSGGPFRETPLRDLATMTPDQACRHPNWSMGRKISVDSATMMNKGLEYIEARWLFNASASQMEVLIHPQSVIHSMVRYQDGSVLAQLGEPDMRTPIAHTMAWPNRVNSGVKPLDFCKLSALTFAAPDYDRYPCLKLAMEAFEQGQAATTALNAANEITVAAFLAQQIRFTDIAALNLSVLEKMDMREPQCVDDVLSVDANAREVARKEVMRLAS
A further series has as its system Arabidopsis thaliana. Nature of the series: Arabidopsis growth inhibition assay (24-well plates, green channel pixel value). The conditions noted are these: Arabidopsis thaliana, 240 h; for EC50: read-out: EC50 against Arabidopsis growth; for pest or weed control at 100 µg/mL: read-out: InR (%) against Arabidopsis.
The mark [2] stands for this setting: root, 7 days, read-out: EC50 BN Root.
Where [3] appears, read: stalk, 7 days, read-out: EC50 BN Stalk.
The mark [4] stands for this setting: root, 7 days, read-out: EC50 EC Root.
Where [5] appears, read: stalk, 7 days, read-out: EC50 EC Stalk.

≈ marks a conversion by molar mass, not a printed value. Like-named read-outs stand apart in the source and are kept apart here.

The compound `Cc1n[nH]c(O)c1CCP(=O)(O)O` [Compound 5a] displayed a melting point of 220 to 221 °C. Also, the EC50 in the series on Brassica napus L. (read-out: EC50 BN Root) is over 100 mg/L. Besides, the EC50 with Brassica napus L. (read-out: EC50 BN Stalk) was 32.8 mg/L (≈ 159 µM). The EC50 in the series with Echinochloa crus-galli (read-out: EC50 EC Root) amounted to 54.1 mg/L (≈ 262 µM). Besides, the EC50 in the series on Echinochloa crus-galli (read-out: EC50 EC Stalk) was 68.5 mg/L (≈ 332 µM). Besides, the inhibition at 100 µM in series [1] came to 11.9%. Moreover, in the series with Arabidopsis thaliana, the EC50 is over 100 mg/L and the pest or weed control at 100 µg/mL is 24%.

With `CCc1n[nH]c(O)c1CCP(=O)(O)O` [Compound 5b], the melting point lay in the range of 217 to 218 °C. Further, the EC50 with Brassica napus L. (read-out: EC50 BN Root) was over 100 mg/L. Moreover, in the series with Brassica napus L. (read-out: EC50 BN Stalk), the EC50 is over 100 mg/L. In addition, the EC50 in the series on Echinochloa crus-galli (read-out: EC50 EC Root) was 86.7 mg/L (≈ 394 µM). Moreover, the EC50 in the series on Echinochloa crus-galli (read-out: EC50 EC Stalk) worked out at 92.2 mg/L (≈ 419 µM). For the same compound, in series [1], the inhibition at 100 µM is 12.9%. Moreover, in the series on Arabidopsis thaliana, the EC50 was over 100 mg/L and the pest or weed control at 100 µg/mL was determined as 26.5%.

Turning to `CCCc1n[nH]c(O)c1CCP(=O)(O)O` [Compound 5c], the melting point lay in the range of 228 to 229 °C. The EC50 in the series on Brassica napus L. (setting [2]) was over 100 mg/L. Also, the EC50 in the series on Brassica napus L. (setting [3]) came to 48.2 mg/L (≈ 206 µM). Also, the EC50 in the series with Echinochloa crus-galli (setting [4]) is 76.3 mg/L (≈ 326 µM). Also, in the series on Echinochloa crus-galli (setting [5]), the EC50 was 10.6 mg/L (≈ 45.3 µM). Moreover, in series [1], the inhibition at 100 µM is 6.1%. For the same compound, in the series with Arabidopsis thaliana, the EC50 was over 100 mg/L and the pest or weed control at 100 µg/mL turned out to be 43.6%.

As to `CC(C)c1n[nH]c(O)c1CCP(=O)(O)O` [Compound 5d], the melting point lay within 210 to 211 °C. Besides, the EC50 in the series with Brassica napus L. (setting [2]) was over 100 mg/L. The EC50 in the series on Brassica napus L. (setting [3]) worked out at 96.9 mg/L (≈ 414 µM). Also, the EC50 in the series on Echinochloa crus-galli (setting [4]) turned out to be 32.1 mg/L (≈ 137 µM). Further, the 50% effective concentration (EC50) in the series with Echinochloa crus-galli (setting [5]) is over 100 mg/L. Moreover, the inhibition at 100 µM in series [1] turned out to be 17.7%. Further, in the series with Arabidopsis thaliana, the EC50 was over 100 mg/L and the pest or weed control at 100 µg/mL was 48.3%.

Turning to `Cc1n[nH]c(C)c1CCP(=O)(O)O` [Compound 5e], the melting point was over 250 °C. In addition, the EC50 with Brassica napus L. (read-out: EC50 BN Root) came to 63 mg/L (≈ 309 µM). Moreover, the EC50 in the series on Brassica napus L. (read-out: EC50 BN Stalk) is over 100 mg/L. Moreover, in the series on Echinochloa crus-galli (read-out: EC50 EC Root), the EC50 was over 100 mg/L. For the same compound, the EC50 in the series with Echinochloa crus-galli (read-out: EC50 EC Stalk) came out at 59.6 mg/L (≈ 292 µM). In addition, in series [1], the inhibition at 100 µM was 23%. In the series on Arabidopsis thaliana, the EC50 is over 100 mg/L and the pest or weed control at 100 µg/mL is 15.8%.

Compound `CCc1n[nH]c(CC)c1CCP(=O)(O)O` [Compound 5f] displayed a melting point of over 250 °C. The EC50 in the series with Brassica napus L. (setting [2]) was over 100 mg/L. Moreover, in the series with Brassica napus L. (setting [3]), the EC50 was over 100 mg/L. The EC50 in the series with Echinochloa crus-galli (setting [4]) worked out at 71.6 mg/L (≈ 308 µM). For the same compound, the EC50 in the series on Echinochloa crus-galli (setting [5]) amounted to 31.4 mg/L (≈ 135 µM). In series [1], the inhibition at 100 µM was 32.4%. Besides, in the series with Arabidopsis thaliana, the EC50 is over 100 mg/L and the pest or weed control at 100 µg/mL was found to be 37.7%.

Take `CCc1onc(O)c1CCP(=O)(O)O` [Compound 6b]: the EC50 in the series on Brassica napus L. (read-out: EC50 BN Root) was 70.1 mg/L (≈ 317 µM); in the series with Brassica napus L. (read-out: EC50 BN Stalk) it was 65.8 mg/L (≈ 298 µM); in the series with Echinochloa crus-galli (read-out: EC50 EC Root), 24.7 mg/L (≈ 112 µM); in the series on Echinochloa crus-galli (read-out: EC50 EC Stalk), 36.1 mg/L (≈ 163 µM); in the series with Arabidopsis thaliana, over 100 mg/L. Also, the inhibition at 100 µM in series [1] was determined as 19.5%. In the series on Arabidopsis thaliana, the pest or weed control at 100 µg/mL came to 46.5%.

As to `CCCc1onc(O)c1CCP(=O)(O)O` [Compound 6c], the EC50 was 99.7 mg/L (≈ 424 µM) with Brassica napus L. (setting [2]); 33.7 mg/L (≈ 143 µM) with Brassica napus L. (setting [3]); 65.4 mg/L (≈ 278 µM) with Echinochloa crus-galli (setting [4]); 41.1 mg/L (≈ 175 µM) in the series on Echinochloa crus-galli (setting [5]); over 100 mg/L in the series on Arabidopsis thaliana. Also, in series [1], the inhibition at 100 µM was determined as 7.5%. Also, the pest or weed control at 100 µg/mL in the series on Arabidopsis thaliana was 42%.

As for `CC(C)c1onc(O)c1CCP(=O)(O)O` [Compound 6d], the EC50 with Brassica napus L. (setting [2]) stood at 67.5 mg/L (≈ 287 µM); with Brassica napus L. (setting [3]), 38.2 mg/L (≈ 162 µM); in the series on Echinochloa crus-galli (setting [4]) it was 40.1 mg/L (≈ 171 µM); in the series on Echinochloa crus-galli (setting [5]) it was 25.7 mg/L (≈ 109 µM); in the series on Arabidopsis thaliana, 45.7 ± 4.8 mg/L (≈ 194 µM). For the same compound, the “Relative activity ratio (BN root)” value in the series with Brassica napus L. (relative to FOS) came to 0.5 fold. Also, the “Relative activity ratio (BN stalk)” value with Brassica napus L. (relative to FOS) was determined as 0.9 fold. Further, the “Relative activity ratio (EC root)” value in the series with Echinochloa crus-galli (relative to FOS) is recorded as 1.0 fold. For the same compound, the “Relative activity ratio (EC stalk)” value in the series with Echinochloa crus-galli (relative to FOS) is 1.5 fold. In series [1], the inhibition at 100 µM came out at 17.3%. Also, the pest or weed control at 100 µg/mL with Arabidopsis thaliana came out at 100%.

`Cc1noc(C)c1CCP(=O)(O)O` [Compound 6e] displayed a melting point of over 250 °C. In addition, the EC50 with Brassica napus L. (read-out: EC50 BN Root) is over 100 mg/L. Besides, the EC50 with Brassica napus L. (read-out: EC50 BN Stalk) is 68.4 mg/L (≈ 333 µM). The EC50 in the series with Echinochloa crus-galli (read-out: EC50 EC Root) was over 100 mg/L. The EC50 in the series with Echinochloa crus-galli (read-out: EC50 EC Stalk) came out at 54.1 mg/L (≈ 264 µM). In series [1], the inhibition at 100 µM came to 12.1%. In addition, in the series on Arabidopsis thaliana, the EC50 is over 100 mg/L and the pest or weed control at 100 µg/mL stood at 12.3%.

What is called EC50 is the midpoint of the concentration-response curve. A word on the melting point: it is the temperature of the solid-liquid transition.

For the origin of these results see publication PMC10673511, “Design, Synthesis and Bioactivity Evaluation of Heterocycle-Containing Mono- and Bisphosphonic Acid Compounds” (Molecules, 2023).
